Legend:
[1] = tested on: DU145 (human prostate cancer); assay: in vitro cytotoxicity against DU145 cancer cell line; assay type: cell-based; details: DU145 cells; for in vitro cytotoxicity (activity against the cancer cell line): data shown in FIG. 2
Procedure: (§1) FIGS. 2A and 2B. In vitro cytotoxicity against two invasive cancer cell lines, DU145 (human prostate cancer) and A2058 (human melanoma) were determined for different analogs.
(§2) Four examples of compounds of structure II with R═—C(O)R or —C(O)OR′ were prepared as depicted in FIG. 2 and their in vitro cytotoxicity against two invasive cancer cell lines, DU145 (human prostate cancer) and A2058 (human melanoma) were determined.

[2] = tested on: A2058 (human melanoma); assay: in vitro cytotoxicity against A2058 cancer cell line; assay type: cell-based; details: A2058 cells; for in vitro cytotoxicity (activity against the cancer cell line): data shown in FIG. 2
Procedure: as §1, §2

[3] = tested on: Hut 78 cells (cutaneous T-cell lymphoma, CTCL); assay: CTCL tumor model: Hut 78 cells injected subcutaneously into NSG mice; assay type: in vivo; details: 20 mg/kg orally (gavage), 3 consecutive days/week; treatment started at tumor size approx. 200 mm^3; vs vehicle
Procedure: NSG (NOD. Cg-Prkdcscid II2rgtm1Wjl/SzJ) mice (5 to 7 weeks of age) were obtained from an-animal in-house breeding facility. The facility mice stock derived from mice obtained from Jackson Laboratory. All animal experiments were conducted in accordance with protocol approved by the City of Hope Beckman Research Institute IACUC.
CTCL tumor model: 3 million of Hut 78 cells in 100 μl (cells in PBS:Matrigel=1:1) injected subcutaneously.
The compound stock of 60 mg/ml was made in DMSO and diluted to 2 mg/ml in 30% Solutol. The compound was administered orally (by gavage) at 10 μl per gram of mice body weight in a dose of 20 mg/kg for 3 consecutive days/week.
100 μl of 3×10^6 Hut78 cells were injected subcutaneously into mice left flanks. The treatments were initiated when the tumor size reached approximately 200 mm^3. The compound or the vehicle alone were administered for 3 consecutive days/week.

Compound	activity compared with the corresponding ETP structure I (p=2) ([1]; FIG. 2)	in vitro cytotoxicity (activity against the cancer cell line) [1]	activity compared with the corresponding ETP structure I (p=2) ([2]; FIG. 2)	in vitro cytotoxicity (activity against the cancer cell line) [2]	inhibition of the tumor size [3] [%]
CC(=O)S[C@@]1(C)C(=O)N2[C@@H](c3ccc4c(c3)OCO4)[C@@](C)(C#N)C[C@]2(SC(C)=O)C(=O)N1C (relative stereo) [LEO-16-1833, Rel-S, S′-((3S,6S,7S,8aS)-6-(benzo[d][1,3]dioxol-5-yl)-7-cyano-2,3,7-trimethyl-1,4-dioxohexahydropyrrolo[1,2-c]pyrazine-3,8a(6H)-diyl) diethanethioate]	nearly identical	good activity	nearly identical	good activity	–
CN1C(=O)[C@@]2(SC(=O)c3ccccc3)C[C@](C)(C#N)[C@H](c3ccc4c(c3)OCO4)N2C(=O)[C@]1(C)SC(=O)c1ccccc1 (relative stereo) [LEO-16-1836]	–	good activity	–	good activity	–
CN1C(=O)[C@@]2(SC(=O)Cc3ccccc3)C[C@](C)(C#N)[C@H](c3ccc4c(c3)OCO4)N2C(=O)[C@]1(C)SC(=O)Cc1ccccc1 (relative stereo) [LEO-16-1835]	–	good activity	–	good activity	–
CC(=O)S[C@@]1(C)C(=O)N2[C@@H](c3ccc4c(c3)OCO4)[C@@](C)(C#N)C[C@]2(SC(C)=O)C(=O)N1C [LEO-16-1845, S,S′-((3S,6S,7S,8aS)-6-(benzo[d][1,3]dioxol-5-yl)-7-cyano-2,3,7-trimethyl-1,4-dioxohexahydropyrrolo[1,2-c]pyrazine-3,8a(6H)-diyl) diethanethioate]	–	–	–	–	86.5

From patent US11584760B2, “Dithio ETP derivatives” (priority 2016, dated 2023)
